Assay results taken from US11059795B2, “Androgen receptor modulators and methods for their use” (ESSA Pharma, Inc., priority 2018, dated 2021).

Experiments:
androgen receptor (AR) = target: T1, androgen receptor (AR) (Homo sapiens, UniProt P10275, T878A); experiment: Androgen-induced PSA (6.1 kb)-luciferase reporter assay in LNCaP cells; type: cell-based; conditions: LNCaP cells transfected with PSA (6.1 kb)-luciferase reporter, R1881 1 nM, 24 h; read-out: PSA-Luc IC50 Range
T1 construct: LNCaP cells were transiently transfected with the PSA (6.1 kb)-luciferase reporter for 24 h; endogenous in cells; host or cells: LNCaP
T1 sequence (P10275 1-920 T878A): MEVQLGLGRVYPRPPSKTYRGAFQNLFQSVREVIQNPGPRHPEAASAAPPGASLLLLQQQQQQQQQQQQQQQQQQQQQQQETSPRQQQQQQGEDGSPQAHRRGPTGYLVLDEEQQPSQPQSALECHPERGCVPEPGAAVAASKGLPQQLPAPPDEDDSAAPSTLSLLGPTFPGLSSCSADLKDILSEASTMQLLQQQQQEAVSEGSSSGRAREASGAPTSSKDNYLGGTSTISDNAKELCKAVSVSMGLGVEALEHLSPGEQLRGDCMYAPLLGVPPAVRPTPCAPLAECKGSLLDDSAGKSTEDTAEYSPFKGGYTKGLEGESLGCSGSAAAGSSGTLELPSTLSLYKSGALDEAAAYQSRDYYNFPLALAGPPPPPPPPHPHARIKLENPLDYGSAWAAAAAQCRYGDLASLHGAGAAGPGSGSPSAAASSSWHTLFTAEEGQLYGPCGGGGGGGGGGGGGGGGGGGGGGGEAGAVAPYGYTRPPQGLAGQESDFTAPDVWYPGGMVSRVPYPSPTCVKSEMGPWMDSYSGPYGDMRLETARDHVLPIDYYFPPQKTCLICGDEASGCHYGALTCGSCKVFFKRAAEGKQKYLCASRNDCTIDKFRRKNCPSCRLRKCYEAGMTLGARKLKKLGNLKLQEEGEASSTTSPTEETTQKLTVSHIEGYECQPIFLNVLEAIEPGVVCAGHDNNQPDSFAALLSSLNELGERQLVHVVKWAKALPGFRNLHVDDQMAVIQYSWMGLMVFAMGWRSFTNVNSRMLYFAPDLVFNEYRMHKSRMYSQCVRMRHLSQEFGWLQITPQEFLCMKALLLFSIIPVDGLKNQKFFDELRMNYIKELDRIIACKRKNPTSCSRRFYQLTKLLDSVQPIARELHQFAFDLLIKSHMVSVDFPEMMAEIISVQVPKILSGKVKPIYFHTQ
Summary of the method: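 Read-out is firefly luminescence (10 s) in LNCaP lysates, normalized to protein, from an ARE-containing PSA (6.1 kb)-luciferase reporter driven by androgen.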

[1] = Microsomal stability assay, human liver microsomes; type: in vitro ADME; conditions: pH 7.4, 1 μM compound, 0.5 mg/mL protein, 37° C., read-out: HLM +/− NADPH: Clint (μL/min/mg protein)
Summary of the method: (§1)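 Compound at 1 μM was incubated at 37° C with 0.5 mg/mL liver microsomes and 1 mM NADPH and/or 1 mM UDPGA (with alamethicin) in 100 mM potassium phosphate pH 7.4, 3 mM MgCl2. Samples were taken at 0, 15, 30 and 60 min and measured by LC/MS/MS. t½ came from compound loss relative to 0 min, and Clint was scaled with 45 mg microsomal protein/g liver.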

[2] = Hepatocyte stability assay, mouse hepatocytes; type: in vitro ADME; conditions: mouse, cryopreserved hepatocytes, 1 μM compound, 0.5 million cells/mL, 37° C., read-out: MH +/− NADPH: Clint (μL/min/million cells)
Text: The […] of in vitro intrinsic clearance (Clint) for drug candidates in the early discovery stage is common practice in the pharmaceutical industry. The Clint values of drug candidates can help to confirm whether metabolism is the main clearance pathway when it is compared with the total body clearance in vivo. Hepatocytes are among the routinely used in vitro systems for measuring clearance. Hepatocytes have been reported to retain most of the phase I and phase II metabolic activities, and therefore, it is a useful tool to estimate the intrinsic clearance for potential drug candidates.
Metabolic stability of testing compound were be evaluated using human and mouse hepatocytes and can also be use rat, mouse, or other animal hepatocytes to predict intrinsic clearance. Cryopreserved hepatocytes were removed from the liquid nitrogen tank and thawed in a 37° C. water bath. As soon as the cells pulled away from the vial wall, they were decanted into 48 ml of warm HT medium. Cells were centrifuged for four minutes at 420 rpm (50 g). After removing the supernatant, pellet was re-suspended in warm DMEM medium. Cell density was counted by a hemacytometer.
The assay was carried out in 96-well microtiter plates. Compounds were incubated for 0, 60, 120, and 180 minutes at 37° C. with hepatocytes. Reaction mixtures (50 μL) contained a final concentration of 1 μM test compound, 0.5 million cells/mL hepatocytes in the DMEM medium. At each of the time points (for example, 0, 1, 2, and 3 hours), 200 μL of quench solution (100% acetonitrile with 0.1% formic acid) with internal standard was transferred to each well. Midazolam was included as a positive control to verify assay performance. Plates were sealed and centrifuged at 4° C. for 15 minutes at 4000 rpm. The supernatant is transferred to fresh plates for LC/MS/MS analysis.
Summarized conditions (customizable): [Compound]=[…], Positive control: midazolam and/or naloxone, [Hepatocyte]=0.5 million cells/Ml, time=0, 60, 120, and 180 min, t=37° C.
All samples were analyzed on LC/MS/MS using an AB Sciex API 4000 instrument, coupled to a Shimadzu LC-20AD LC Pump system. Analytical samples were separated using a Waters Atlantis T3 dC18 reverse phase HPLC column (20 mm×2.1 mm) at a flow rate of 0.5 mL/min. The mobile phase consisted of 0.1% formic acid in water (solvent A) and 0.1% formic acid in 100% acetonitrile (solvent B).
The extent of metabolism was calculated as the disappearance of the test compound, compared to the 0-min control reaction incubations. Initial rates were calculated for the compound concentration and used to determine t½ values and subsequently, the intrinsic clearance, Clint. Clint=(0.693)(1/t½(min))(mL incubation/million cells)

[3] = Microsomal stability assay, mouse liver microsomes; type: in vitro ADME; conditions: mouse, liver microsomes, pH 7.4, mouse liver microsomes, 1 μM compound, 0.5 mg/mL protein, 37° C.; read-out: MLM +30/− NADPH: Clint (μL/min/mg protein)
Summary of the method: as §1

Compound | IC50 (androgen receptor (AR)) [nM] | microsomal CLint at 1 μM [1] [µL/min/mg] | hepatocyte CLint at 1 μM [2] [µL/min/1e6 cells] | microsomal CLint at 1 μM [3] [µL/min/mg]
CC(C)(c1ccc(OCc2cncnc2NS(C)(=O)=O)cc1)c1cc(Cl)c(OCCCl)c(C#N)c1 [Compound A148] | 500 to 2000 | ≥ 48 | < 4 | < 12
CC(C)(c1ccc(OCC2COC(NS(C)(=O)=O)=N2)cc1)c1ccc(OCCCl)c(C#N)c1 (centres unmarked) [Compound A143] | > 2000 | < 12 | < 4 | < 12
CC(C)(c1ccc(OCc2cnc(C(N)=O)o2)cc1)c1cc(Cl)c(CCCCl)c(C#N)c1 [Compound A114] | 500 to 2000 | < 12 | ≥ 18 | 12 to 48
CC(C)(c1ccc(NC(=O)c2coc(S(C)(=O)=O)n2)cc1)c1cc(Cl)c(OCCCl)c(C#N)c1 [Compound A96] | > 2000 | ≥ 48 | ≥ 18 | ≥ 48
CC(Oc1ccc(C(C)(O)c2cc(Cl)c(OCCCl)c(C#N)c2)cc1)c1ocnc1S(C)(=O)=O (centres unmarked) [Compound A95] | > 2000 | 12 to 48 | ≥ 18 | ≥ 48
CC(C)(c1ccc(OCc2ncc(S(C)(=O)=O)[nH]2)cc1)c1cc(Cl)c(OCCCl)c(C#N)c1 [Compound A94] | 500 to 2000 | 12 to 48 | 4 to 18 | 12 to 48
Cc1cc(C(C)(C)c2ccc(OC(C)c3ocnc3S(C)(=O)=O)cc2)cc(C#N)c1OCCCl (centres unmarked) [Compound A88] | 500 to 2000 | ≥ 48 | ≥ 18 | ≥ 48
CC(C)(c1ccc(OCc2nnccc2NS(C)(=O)=O)cc1)c1cc(Cl)c(OCCCl)c(C#N)c1 [Compound A101] | 500 to 2000 | ≥ 48 | 4 to 18 | 12 to 48
CC(Oc1ccc(C(C)(C)c2cc(Cl)c(OCCCl)c(C#N)c2)cc1)c1ccnc(NS(C)(=O)=O)n1 (centres unmarked) [Compound A98] | 500 to 2000 | < 12 | < 4 | < 12
CC(C)(c1ccc(OCc2coc(NS(C)(=O)=O)n2)cc1)c1cc(Cl)c(OCCCl)c(C#N)c1 [Compound A130] | 500 to 2000 | 12 to 48 | < 4 | < 12
CC(C)(c1ccc(OCc2nc(C(N)=O)cs2)cc1)c1cc(Cl)c(OCCCl)c(C#N)c1 [Compound A171, 2-((4-(2-(3-chloro-4-(2-chloroethoxy)-5-cyanophenyl)propan-2-yl)phenoxy)methyl)thiazole-4-carboxamide] | 500 to 2000 | < 12 | 4 to 18 | < 12
Cc1cc(C(C)(C)c2ccc(OC(C)c3ncc(S(C)(=O)=O)o3)cc2)cc(C#N)c1OCCCl (centres unmarked) [Compound A89] | 500 to 2000 | 12 to 48 | ≥ 18 | ≥ 48
CC(C)(c1ccc(OCc2ocnc2S(C)(=O)=O)cc1)c1cc(Cl)c(OCC(Cl)CO)c(Cl)c1 (centres unmarked) [Compound A97] | < 500 | 12 to 48 | ≥ 18 | 12 to 48
CC(C)(c1ccc(OCc2nc(C#N)cs2)cc1)c1cc(Cl)c(OCCCl)c(C#N)c1 [Compound A172, 2-((4-(2-(3-chloro-4-(2-chloroethoxy)-5-cyanophenyl)propan-2-yl)phenoxy)methyl)thiazole-4-carbonitrile] | < 500 | < 12 | < 4 | < 12
CC(Oc1ccc(C(C)(C)c2cc(Cl)c(OCCCl)c(Cl)c2)cc1)c1[nH]cnc1S(C)(=O)=O (centres unmarked) [Compound A116] | 500 to 2000 | 12 to 48 | 4 to 18 | 12 to 48

Results, then the molecule that gave them:

IC50 (androgen receptor (AR)) [nM] | microsomal CLint at 1 μM [1] [µL/min/mg] | hepatocyte CLint at 1 μM [2] [µL/min/1e6 cells] | microsomal CLint at 1 μM [3] [µL/min/mg] | Compound
< 500 | < 12 | ≥ 18 | 12 to 48 | Cc1oc(S(C)(=O)=O)nc1COc1ccc(C(C)(C)c2cc(Cl)c(OCCCl)c(C#N)c2)cc1 [Compound A80]
< 500 | 12 to 48 | < 4 | < 12 | CC(C)(c1ccc(OCc2ccnnc2NS(C)(=O)=O)cc1)c1cc(Cl)c(OCCCl)c(C#N)c1 [Compound A102]
< 500 | < 12 | < 4 | < 12 | C[C@@H](Oc1ccc(C(C)(C)c2cc(Cl)c(OCCCl)c(C#N)c2)cc1)c1ccnc(NS(C)(=O)=O)n1 (single isomer, unassigned) [Compound A169]
< 500 | 12 to 48 | ≥ 18 | ≥ 48 | Cc1nc(S(C)(=O)=O)oc1COc1ccc(C(C)(C)c2cc(Cl)c(OCCCl)c(C#N)c2)cc1 [Compound A81]
< 500 | 12 to 48 | ≥ 18 | 12 to 48 | CC(C)(c1ccc(OCc2ncc(NS(C)(=O)=O)s2)cc1)c1cc(Cl)c(OCCCl)c(C#N)c1 [Compound A135]
< 500 | 12 to 48 | ≥ 18 | 12 to 48 | COC(=O)Nc1nc(COc2ccc(C(C)(C)c3cc(Cl)c(OCCCl)c(C#N)c3)cc2)co1 [Compound A156]
< 500 | < 12 | 4 to 18 | ≥ 48 | Cc1nc(NS(C)(=O)=O)nc(COc2ccc(C(C)(C)c3cc(Cl)c(OCCCl)c(C#N)c3)cc2)c1C [Compound A123]
< 500 | 12 to 48 | ≥ 18 | 12 to 48 | CC(C)(c1ccc(OCc2cnc(CN)o2)cc1)c1cc(Cl)c(OCCCl)c(C#N)c1 [Compound A192]
